The values below come from US4177271A, “Hydroxy- and oxo-substituted α-benzylidenylcycloalkanes” (Unicler, priority 1977, dated 1979).

Series [1] is described as follows: Acute toxicity (LD50), mice, intraperitoneal route, Log-Probits method of Miller and Tainter. In kind it is in vivo. The conditions noted are these: mouse, in vivo, ip. The method, then:
(§1) The LD50 of the products was determined in mice by the intraperitoneal route according to the "Log-Probits" method of Miller and Tainter (Proc. Soc. Exptl. Biol. Med. 1944; 57, 261-264).

Series [2] deals with hexobarbital-induced narcosis. As to the kind of experiment: Modification (potentialisation) of hexobarbital-induced narcosis in mice. In kind it is in vivo. The conditions noted are these: Mus musculus, sodium hexobarbital 70 mg/kg IP half an hour later, read-out: Narcosis potentialisation, T (percentage increase in sleep time induced by hexobarbital); for change in vivo at 200 mg/kg: 200 mg/kg IP; for change in vivo at 100 mg/kg: 100 mg/kg IP; for change in vivo at 10 mg/kg: 10 mg/kg IP. The protocol:
(§2) This was investigated by observing the behaviour of the animal by studying the modification in hexobarbital-induced narcosis and antagonism vis-a-vis reserpine.
Mice, each weighing about 20 g, received intraperitoneally the product being investigated. Half an hour later sodium hexobarbital was injected by the same route at a dosage of 70 mg/kg.
The animals were placed on a hot plate maintained at a constant temperature of 27° C. Sleep is considered to have occurred as soon as a mouse, placed in the dorsal decubitus position, is incapable of turning over onto its paws.
The narcosis potentialisation is evaluated from the percentage increase in sleep time induced by hexobarbital (T).

Series [3] deals with blepharospasm produced by reserpine. Kind of series: Antagonism vis-a-vis reserpine (blepharospasm) in mice. The class given is in vivo, Swiss male mice. Also noted: key: The inhibition of blepharospasm is recorded from 0 to +++; The inhibition of blepharospasm is recorded from 0 to +++. Particulars: reserpine 5 mg/kg IP. The method, then:
as §2
(Chen G., and Bohner B., (1961) J. pharmacol Exptl. Therap. 131, 179).
Reserpine when administered intraperitoneally to mice in a dosage of 5 mg/kg causes the eyelids to close more or less completely in the majority of animals. The administration of certain products will inhibit the blepharospasm produced by reserpine.
Swiss male mice are distributed into groups of 10 mice, and each experiment includes at least 3 groups:
a control group that receives only the solvent and reserpine
a group treated with a reference product (we chose Imipramine)
a treated group that receives the product being tested.
The products under investigation are administered intraperitoneally at 30 minutes or 2 hours before intraperitoneal injection of reserpine in a dosage of 5 mg/kg, so as to study their activity as a function of time.
The degree of ptosis for each eye and each animal is observed every 30 minutes for 4 to 5 hours, using RUBIN's score method. The activity of the product is determined by comparison with the result obtained with the treated control group. The inhibition of blepharospasm is recorded from 0 to +++.

Series [4] has as its system mice. As to the kind of experiment: Acute toxicity (LD50), mice, intraperitoneal route, Log-Probits method of Miller and Tainter. In kind it is in vivo. The protocol:
as §1

The subject of series [5] is central nervous system. Kind of series: Activity on the central nervous system (overall conclusion). Also noted: species or system mice. The conditions noted are these: mouse, in vivo.
From the text: as §2

For orientation: LD50 means the dose at which mortality reaches 50%.

In turn, `COc1cc(C=C2CCCC(C)C2O)cc(OC)c1OC` (centres unmarked) [compound 1269] yielded an LD50 in series [1] of 1100 mg/kg. Further, the change in vivo at 110 mg/kg in series [2] (110 mg/kg IP) amounted to 66%. Also, in series [3] (110 mg/kg IP), the “Blepharospasm (inhibition)” value is listed as 0.

For the molecule `CC1CCCC(=Cc2cc3c(cc2Cl)OCO3)C1=O` (centres unmarked) [compound 1274], in series [4], the “DL0 (IP)” value is listed as ≥ 2000 mg/kg. Also, the change in vivo at 200 mg/kg in series [2] was determined as 99%.

In the case of `CC1CC(=Cc2ccc3c(c2)OCO3)C(=O)C(=Cc2ccc3c(c2)OCO3)C1` (centres unmarked) [compound 1059], the “DL0 (IP)” value in series [4] is reported as ≥ 2000 mg/kg. In addition, the change in vivo at 200 mg/kg in series [2] turned out to be 0%. The “Blepharospasm (inhibition)” value in series [3] (200 mg/kg IP) is 0.

As for `COc1ccc(C=C2CCCC(C)C2=O)c(OC)c1OC` (centres unmarked) [compound 1270], in series [1], the LD50 amounted to 1000 mg/kg.

Turning to `OC1C(=Cc2ccc3c(c2)OCO3)CCCC1CN1CCOCC1` (centres unmarked) [compound 1347], the LD50 in series [1] was 1000 mg/kg. In addition, the change in vivo at 100 mg/kg in series [2] worked out at 60%.

With `COc1ccc(C=C2CCCC(C)C2O)cc1OC` (centres unmarked) [compound 1267], the LD50 in series [1] was 900 mg/kg.

Turning to `CC1CCCC(=Cc2ccc3c(c2)OCO3)C1O` (centres unmarked) [Code No. 1040, 2-(3,4-methylenedioxybenzylidene)-6-methylcyclohexanol or 2-piperonylidene-6-methylcyclohexanol], the LD50 in series [1] was 1000 mg/kg. Also, in series [5], the “usefulness as an anti-depressant” value is “particularly useful as an anti-depressant”. In addition, the change in vivo at 100 mg/kg in series [2] was 174%.

The molecule `O=C1CCCC1=Cc1ccc2c(c1)OCO2` [compound 1386] yielded an LD50 in series [1] of 1300 mg/kg. Further, in series [2] (130 mg/kg IP), the change in vivo at 130 mg/kg was 190%. The “Blepharospasm (inhibition)” value in series [3] (130 mg/kg IP) turned out to be 0.

In series [1], `CC1CCCC(=Cc2ccc3c(c2)OCO3)C1=O` (centres unmarked) [compound 993] displayed an LD50 of 2000 mg/kg. Moreover, in series [2], the change in vivo at 200 mg/kg amounted to 385%. The “Blepharospasm (inhibition)” value in series [3] (200 mg/kg IP) came out at 0.

Turning to `O=C1C(=Cc2ccc3c(c2)OCO3)Cc2ccccc21` [compound 1292], the “DL0 (IP)” value in series [4] is ≥ 2000 mg/kg. For the same molecule, the change in vivo at 200 mg/kg in series [2] was found to be 62%. Moreover, the “Blepharospasm (inhibition)” value in series [3] (200 mg/kg IP) came out at 0.

For the molecule `CC1CCC(O)C(=Cc2ccc3c(c2)OCO3)C1` (centres unmarked) [compound 1446], the LD50 in series [1] was 1500 mg/kg.

Consider `OC1C(=Cc2ccc3c(c2)OCO3)Cc2ccccc21` (centres unmarked) [compound 1322], for which the LD50 in series [1] was determined as 1500 mg/kg. Further, the change in vivo at 150 mg/kg in series [2] (150 mg/kg IP) is 116%. In addition, in series [3] (150 mg/kg IP), the “Blepharospasm (inhibition)” value amounted to 0.

Regarding `CN(C)CC1(C)CCCC(=Cc2ccc3c(c2)OCO3)C1O` (centres unmarked) [compound 1349], the LD50 in series [1] turned out to be 100 mg/kg. Besides, the change in vivo at 10 mg/kg in series [2] came to 10%.

As for `CN1CC(=Cc2ccc3c(c2)OCO3)C(O)C(=Cc2ccc3c(c2)OCO3)C1` (centres unmarked) [compound 1324], the “DL0 (IP)” value in series [4] is ≥ 2000 mg/kg. Also, in series [2], the change in vivo at 200 mg/kg worked out at 83%. Further, in series [3] (200 mg/kg IP), the “Blepharospasm (inhibition)” value is 0.

For the molecule `CC1CCC(=O)C(=Cc2ccc3c(c2)OCO3)C1` (centres unmarked) [compound 994], the 50% lethal dose (LD50) in series [1] came to 2000 mg/kg. Moreover, the change in vivo at 200 mg/kg in series [2] came out at 103%. The “Blepharospasm (inhibition)” value in series [3] (200 mg/kg IP) was 0.

`COc1cc(C=C2CCCC(C)C2=O)cc(OC)c1OC` (centres unmarked) [compound 1268] yielded a 50% lethal dose (LD50) in series [1] of 1000 mg/kg. Further, in series [2], the change in vivo at 100 mg/kg amounted to 60%.

Consider `CC1CCCC(=Cc2cc3c(cc2Cl)OCO3)C1O` (centres unmarked) [compound 1275], for which the LD50 in series [1] came to 2000 mg/kg. For the same molecule, in series [2], the change in vivo at 200 mg/kg stood at 56%. Also, the “Blepharospasm (inhibition)” value in series [3] (200 mg/kg IP) was 0.

For `CN1CCN(CC2(C)CCCC(=Cc3ccc4c(c3)OCO4)C2=O)CC1` (centres unmarked) [compound 1352], the LD50 in series [1] worked out at 150 mg/kg. The change in vivo at 15 mg/kg in series [2] (15 mg/kg IP) worked out at 0%. Also, the “Blepharospasm (inhibition)” value in series [3] (15 mg/kg IP) is recorded as 0.

With `OC1CCCC1=Cc1ccc2c(c1)OCO2` (centres unmarked) [compound 1387], the LD50 in series [1] was found to be 100 mg/kg. In addition, the change in vivo at 10 mg/kg in series [2] was 40%. In addition, the “Blepharospasm (inhibition)” value in series [3] (10 mg/kg IP) is listed as 0.

In series [1], `COc1ccc(C=C2CCCC(C)C2=O)cc1OC` (centres unmarked) [compound 1266] returned an LD50 of 700 mg/kg. In series [2] (70 mg/kg IP), the change in vivo at 70 mg/kg came to 0%. In addition, the “Blepharospasm (inhibition)” value in series [3] (70 mg/kg IP) is 0.

Turning to `OC1C(=Cc2ccc3c(c2)OCO3)CCc2ccccc21` (centres unmarked) [compound 1388], in series [4], the “DL0 (IP)” value is listed as > 200 mg/kg. Moreover, the change in vivo at 200 mg/kg in series [2] was 10%. Moreover, the “Blepharospasm (inhibition)” value in series [3] (200 mg/kg IP) stood at 0.

With `COc1ccc(C=C2CCCC(C)C2O)c(OC)c1OC` (centres unmarked) [compound 1271], in series [1], the LD50 was found to be 500 mg/kg. Further, the change in vivo at 50 mg/kg in series [2] (50 mg/kg IP) turned out to be 0%. Further, the “Blepharospasm (inhibition)” value in series [3] (50 mg/kg IP) was determined as 0.

For the molecule `O=C1C(=Cc2ccc3c(c2)OCO3)CCc2ccccc21` [compound 1293], the “DL0 (IP)” value in series [4] was ≥ 2000 mg/kg. Further, the change in vivo at 200 mg/kg in series [2] stood at 30%. Moreover, in series [3] (200 mg/kg IP), the “Blepharospasm (inhibition)” value is listed as 0.
